According to patent US10005739B2, “Quinazolinone and isoquinolinone derivative” (CHUGAI SEIYAKU KABUSHIKI KAISHA, priority 2013, dated 2018):

biological target: DDR1 (Homo sapiens (Human), UniProt Q08345); assay: Measurement of DDR1 enzyme inhibitory activity (phosphorylation of biotinylated peptide, time-resolved fluorescence); type: biochemical; settings: human DDR1 enzyme, biotinylated peptide phosphorylation; read-out: DDR1 enzyme inhibition assay IC50
Procedure: 1. Measurement of DDR1 Enzyme Inhibitory Activity
The DDR1 enzyme inhibitory activity was determined with human DDR1 enzyme prepared using the baculovirus expression system, based on the inhibitory activity of phosphorylation of a biotinylated peptide ([…]) by the enzyme. The phosphorylated biotinylated peptide was detected using time-resolved fluorescence, with an anti-phosphorylated tyrosine antibody conjugated with europium cryptate and streptavidin conjugated with XL665 which is a derivative of allophycocyanin.

DDR1, sequence (Q08345 19-913): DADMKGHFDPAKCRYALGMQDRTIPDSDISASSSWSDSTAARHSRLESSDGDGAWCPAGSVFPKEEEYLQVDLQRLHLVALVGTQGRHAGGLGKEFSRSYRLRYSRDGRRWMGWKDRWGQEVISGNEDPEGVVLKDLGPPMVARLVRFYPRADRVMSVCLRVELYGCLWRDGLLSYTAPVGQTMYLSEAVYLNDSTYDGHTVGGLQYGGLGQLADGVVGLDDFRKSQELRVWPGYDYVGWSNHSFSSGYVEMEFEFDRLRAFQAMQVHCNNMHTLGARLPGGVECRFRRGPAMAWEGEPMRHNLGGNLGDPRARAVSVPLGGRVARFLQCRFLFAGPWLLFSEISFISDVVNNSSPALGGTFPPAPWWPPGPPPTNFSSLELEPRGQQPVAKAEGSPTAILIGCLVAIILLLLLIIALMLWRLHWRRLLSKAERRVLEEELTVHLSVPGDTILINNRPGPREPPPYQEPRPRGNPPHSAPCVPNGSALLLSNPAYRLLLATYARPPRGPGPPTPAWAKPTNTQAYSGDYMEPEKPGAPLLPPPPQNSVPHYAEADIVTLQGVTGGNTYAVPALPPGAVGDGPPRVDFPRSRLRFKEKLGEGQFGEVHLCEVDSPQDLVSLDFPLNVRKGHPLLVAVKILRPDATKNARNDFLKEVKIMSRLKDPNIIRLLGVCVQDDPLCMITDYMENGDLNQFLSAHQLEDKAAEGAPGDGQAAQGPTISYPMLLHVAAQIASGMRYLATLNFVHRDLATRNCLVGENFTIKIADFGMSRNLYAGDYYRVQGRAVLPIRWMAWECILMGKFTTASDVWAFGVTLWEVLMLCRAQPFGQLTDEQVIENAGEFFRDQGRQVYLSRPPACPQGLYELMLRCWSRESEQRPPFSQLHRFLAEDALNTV

Compound | IC50
CCSc1ccc(Cl)cc1Nn1cnc2ccc([N+](=O)[O-])cc2c1=O [Compound A-56, 3-(5-Chloro-2-ethylsulfanylanilino)-6-nitroquinazolin-4-one] | 99 nM
CCSc1ccc(Cl)cc1Nn1cnc2ccc(N)cc2c1=O [Compound A-59, 6-Amino-3-(5-chloro-2-ethylsulfanylanilino)quinazolin-4-one] | 480 nM
CCS(=O)(=O)c1ccc(Cl)cc1Nn1cnc2ccc([N+](=O)[O-])cc2c1=O [Compound A-57, 3-(5-Chloro-2-ethylsulfonylanilino)-6-nitroquinazolin-4-one] | 120 nM
CC#Cc1ccc2ncn(Nc3cc(Cl)ccc3S(=O)(=O)CC)c(=O)c2c1 [Compound A-65, 3-(5-Chloro-2-ethylsulfonylanilino)-6-prop-1-ynylquinazolin-4-one] | 3110 nM
CCSc1ccc(Cl)cc1Nn1cnc2ccc(C)cc2c1=O [Compound A-50, 3-(5-Chloro-2-ethylsulfanylanilino)-6-methylquinazolin-4-one] | 57 nM
CCSc1ccc(C#N)cc1Nn1cnc2ccc(C(F)(F)F)cc2c1=O [Compound C-9, 4-Ethylsulfanyl-3-[[4-oxo-6-(trifluoromethyl)quinazolin-3-yl]amino]benzonitrile] | 99 nM
CCSc1ccc(C#N)cc1Nn1cnc2ncc(Br)cc2c1=O [Compound C-7, 3-[(6-Bromo-4-oxopyrido[2,3-d]pyrimidin-3-yl)amino]-4-ethylsulfanylbenzonitrile] | 750 nM
C=C(C)c1ccc2ncn(Nc3cc(Cl)ccc3S(=O)(=O)CC)c(=O)c2c1 [Compound A-62, 3-(5-Chloro-2-ethylsulfonylanilino)-6-prop-1-en-2-ylquinazolin-4-one] | 110 nM
CCS(=O)(=O)c1ccc(C#N)cc1Nn1cnc2ccc(OC(F)(F)F)cc2c1=O [Compound C-16, 4-Ethylsulfonyl-3-[[4-oxo-6-(trifluoromethoxy)quinazolin-3-yl]amino]benzonitrile] | 270 nM
CCSc1ccc(OC)cc1Nn1cnc2ccc(OC(F)(F)F)cc2c1=O [Compound C-27, 3-(2-Ethylsulfanyl-5-methoxyanilino)-6-(trifluoromethoxy)quinazolin-4-one] | 200 nM
CCS(=O)(=O)c1ccc(Cl)cc1Nn1cnc2ccc(C(C)C)cc2c1=O [Compound A-63, 3-(5-Chloro-2-ethylsulfonylanilino)-6-propan-2-ylquinazolin-4-one] | 200 nM
CCSc1ccc(Cl)cc1Nn1cnc2cc(F)c(F)cc2c1=O [Compound A-30, 3-(5-Chloro-2-ethylsulfanylanilino)-6,7-difluoroquinazolin-4-one] | 100 nM
CCS(=O)(=O)c1c(Cl)cc(Cl)cc1Nn1cnc2ccc(C(F)(F)F)cc2c1=O [Compound C-39, 3-(3,5-Dichloro-2-ethylsulfonylanilino)-6-(trifluoromethyl)quinazolin-4-one] | 140 nM
CCS(=O)(=O)c1ccc(Br)cc1Nn1cnc2c(Br)cc(OC(F)(F)F)cc2c1=O [Compound C-24, 8-Bromo-3-(5-bromo-2-ethylsulfonylanilino)-6-(trifluoromethoxy)quinazolin-4-one] | 280 nM
CCSc1ccc(Cl)cc1Nn1cnc2c(Cl)cc(C(F)(F)F)cc2c1=O [Compound A-11, 8-Chloro-3-(5-chloro-2-ethylsulfanylanilino)-6-(trifluoromethyl)quinazolin-4-one] | 400 nM
CCOc1ccc2ncn(Nc3cc(Cl)ccc3SCC)c(=O)c2c1 [Compound A-36, 3-(5-Chloro-2-ethylsulfanylanilino)-6-ethoxyquinazolin-4-one] | 250 nM
CCOc1ccc(SCC)c(Nn2cnc3c(Br)cc(C(F)(F)F)cc3c2=O)c1 [Compound C-31, 8-Bromo-3-(5-ethoxy-2-ethylsulfanylanilino)-6-(trifluoromethyl)quinazolin-4-one] | 330 nM
CSc1ccc(Cl)cc1Nn1cnc2c(Br)cc(C)cc2c1=O [Compound B-1, 8-Bromo-3-(5-chloro-2-methylsulfanylanilino)-6-methylquinazolin-4-one] | 250 nM
CCSc1ccc(C#N)cc1Nn1cnc2c(Br)cc(OC(F)(F)F)cc2c1=O [Compound C-13] | 110 nM
C=Cc1ccc2ncn(Nc3cc(Cl)ccc3S(=O)(=O)CC)c(=O)c2c1 [Compound A-64, 3-(5-Chloro-2-ethylsulfonylanilino)-6-ethenylquinazolin-4-one] | 200 nM
CCS(=O)(=O)c1ccc(C(F)(F)F)cc1Nn1cnc2c(Br)cc(C(F)(F)F)cc2c1=O [Compound C-35, 8-Bromo-3-[2-ethylsulfonyl-5-(trifluoromethyl)anilino]-6-(trifluoromethyl)quinazolin-4-one] | 210 nM
CCSc1ccc(Cl)cc1Nn1cnc2ccc(C(F)(F)F)cc2c1=O [Compound A-9, 3-(5-Chloro-2-ethylsulfanylanilino)-6-(trifluoromethyl)quinazolin-4-one] | 180 nM
N#Cc1ccc(Sc2ccccc2)c(Nn2cnc3ccc(C(F)(F)F)cc3c2=O)c1 [Compound B-15, 3-[[4-Oxo-6-(trifluoromethyl)quinazolin-3-yl]amino]-4-phenylsulfanylbenzonitrile] | 860 nM
CCSc1ccc(C#N)cc1Nn1cnc2ccc(OC(F)(F)F)cc2c1=O [Compound C-15, 4-Ethylsulfanyl-3-[[4-oxo-6-(trifluoromethoxy)quinazolin-3-yl]amino]benzonitrile] | 210 nM
CCS(=O)(=O)c1ccc(Cl)cc1Nn1cnc2cc(OC)c(OC)cc2c1=O [Compound A-39, 3-(5-Chloro-2-ethylsulfonylanilino)-6-dimethoxyquinazolin-4-one] | 1750 nM
CCS(=O)(=O)c1ccc(Cl)cc1Nn1cnc2ccc(S(C)(=O)=O)cc2c1=O [Compound A-49, 3-(5-Chloro-2-ethylsulfonylanilino)-6-methylsulfonylquinazolin-4-one] | 2130 nM
CCCS(=O)(=O)c1ccc(Cl)cc1Nn1cnc2c(Br)cc(C)cc2c1=O [Compound B-4, 8-Bromo-3-(5-chloro-2-propylsulfonylanilino)-6-methylquinazolin-4-one] | 110 nM
CCSc1ccc(C#N)cc1Nn1cnc2c(Br)cc(C(F)(F)F)cc2c1=O [Compound C-11, 3-[[8-Bromo-4-oxo-6-(trifluoromethyl)quinazolin-3-yl]amino]-4-ethylsulfanylbenzonitrile] | 110 nM
CCS(=O)(=O)c1ccc(OC)cc1Nn1cnc2c(Br)cc(C(F)(F)F)cc2c1=O [Compound C-30, 8-Bromo-3-(2-ethylsulfonyl-5-methoxyanilino)-6-(trifluoromethyl)quinazolin-4-one] | 150 nM

Further lines, results first:

IC50 | Compound
130 nM | CCS(=O)(=O)c1ncc(Cl)cc1Nn1cnc2c(Br)cc(C)cc2c1=O [Compound D-5, 8-Bromo-3-[(5-chloro-2-ethylsulfonylpyridin-3-yl)amino]-6-methylquinazolin-4-one]
600 nM | CCS(=O)(=O)c1ccc(Cl)cc1Cn1cnc2c(Br)cc(C)cc2c1=O [Compound E-2, 8-Bromo-3-[(5-chloro-2-ethylsulfonylphenyl)methyl]-6-methylquinazolin-4-one]
390 nM | CCS(=O)(=O)c1ccc(Cl)cc1Cn1cnc2c(Br)cc(OC(F)(F)F)cc2c1=O [Compound E-12, 8-Bromo-3-[(5-chloro-2-ethylsulfonylphenyl)methyl]-6-(trifluoromethoxy)quinazolin-4-one]
1340 nM | CCS(=O)(=O)c1ccc(N)cc1Cn1ccc2ccc(OC(F)(F)F)cc2c1=O [Compound F-10, 2-[(5-Amino-2-ethylsulfonylphenyl)methyl]-7-(trifluoromethoxy)isoquinolin-1-one]
2080 nM | CCS(=O)(=O)c1ccc(N)cc1Cn1ccc2ccc(C(F)(F)F)cc2c1=O [Compound F-7, 2-[(5-Amino-2-ethylsulfonylphenyl)methyl]-7-(trifluoromethyl)isoquinolin-1-one]
580 nM | CCSc1ncc(Cl)cc1Nn1cnc2c(Br)cc(C)cc2c1=O [Compound D-4, 8-Bromo-3-[(5-chloro-2-ethylsulfanylpyridin-3-yl)amino]-6-methylquinazolin-4-one]
410 nM | CCSc1ncc(Cl)cc1Nn1cnc2ccc(C(F)(F)F)cc2c1=O [Compound D-2, 3-[(5-Chloro-2-ethylsulfanylpyridin-3-yl)amino]-6-(trifluoromethyl)quinazolin-4-one]
93 nM | CCSc1cnc(Cl)cc1Nn1cnc2ccc(C(F)(F)F)cc2c1=O [Compound D-6, 3-[(2-Chloro-5-ethylsulfanylpyridin-4-yl)amino]-6-(trifluoromethyl)quinazolin-4-one]
950 nM | CCSc1ccc(Cl)cc1Cn1cnc2cc(C)c(Br)cc2c1=O [Compound E-5, 6-Bromo-3-[(5-chloro-2-ethylsulfanylphenyl)methyl]-7-methylquinazolin-4-one]
680 nM | CCS(=O)(=O)c1ccc(C#N)cc1Nn1cnc2cc(CN3CCOCC3)c(OC(F)(F)F)cc2c1=O [Compound G-8, 4-Ethylsulfonyl-3-[[7-(morpholin-4-ylmethyl)-4-oxo-6-(trifluoromethoxy)quinazolin-3-yl]amino]benzonitrile]
540 nM | CCSc1ccc(Cl)cc1Cn1cnc2c(Br)cc(OC(F)(F)F)cc2c1=O [Compound E-11, 8-bromo-3-[(5-chloro-2-ethylsulfanylphenyl)methyl]-6-(trifluoromethoxy)quinazolin-4-one]

same assay, conditions: read-out: DDR1 enzyme inhibition assay IC50

IC50 | Compound
170 nM | CCS(=O)(=O)c1ccc(Cl)cc1Cn1cnc2cc(CN3CC[C@@H](N)C3)c(Br)cc2c1=O [Compound J-7, 7-[[(3R)-3-aminopyrrolidin-1-yl]methyl]-6-bromo-3-[(5-chloro-2-ethylsulfonylphenyl)methyl]quinazolin-4-one]
120 nM | CCS(=O)(=O)c1ccc(Cl)cc1Cn1cnc2cc(CN3CCC(N4CCCCC4)C3)c(Br)cc2c1=O (stereo not drawn) [Compound J-9, 6-Bromo-3-[(5-chloro-2-ethylsulfonylphenyl)methyl]-7-[(3-piperidin-1-ylpyrrolidin-1-yl)methyl]quinazolin-4-one]
